The subject of one test is MOLM-13. Nature of the test: Proliferation inhibition, CellTiter-Glo, MOLM-13. The test is classed as cell-based, human. The note with it: Homo sapiens, 96 h; MOLM-13 cells, IC50 (4 days), CellTiter-Glo; read-out: MOLM-13 IC50. The gist of the method: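 About 10,000 cells per well in RPMI-1640 with 10% FBS. Compounds added 2 h after seeding at eight concentrations in duplicate (0.2% DMSO as 100% proliferation), then incubated ~96 h at 37° C, 5% CO2. ATP measured by CellTiter-Glo luminescence; IC50 from four-parameter logistic fit.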

For test [1], the target named is T1, Ba/F3 cell lines stably expressing human FLT3-ITD (Homo sapiens, UniProt P36888, cells depend on it, form not given).
T1 sequence (P36888 1-993): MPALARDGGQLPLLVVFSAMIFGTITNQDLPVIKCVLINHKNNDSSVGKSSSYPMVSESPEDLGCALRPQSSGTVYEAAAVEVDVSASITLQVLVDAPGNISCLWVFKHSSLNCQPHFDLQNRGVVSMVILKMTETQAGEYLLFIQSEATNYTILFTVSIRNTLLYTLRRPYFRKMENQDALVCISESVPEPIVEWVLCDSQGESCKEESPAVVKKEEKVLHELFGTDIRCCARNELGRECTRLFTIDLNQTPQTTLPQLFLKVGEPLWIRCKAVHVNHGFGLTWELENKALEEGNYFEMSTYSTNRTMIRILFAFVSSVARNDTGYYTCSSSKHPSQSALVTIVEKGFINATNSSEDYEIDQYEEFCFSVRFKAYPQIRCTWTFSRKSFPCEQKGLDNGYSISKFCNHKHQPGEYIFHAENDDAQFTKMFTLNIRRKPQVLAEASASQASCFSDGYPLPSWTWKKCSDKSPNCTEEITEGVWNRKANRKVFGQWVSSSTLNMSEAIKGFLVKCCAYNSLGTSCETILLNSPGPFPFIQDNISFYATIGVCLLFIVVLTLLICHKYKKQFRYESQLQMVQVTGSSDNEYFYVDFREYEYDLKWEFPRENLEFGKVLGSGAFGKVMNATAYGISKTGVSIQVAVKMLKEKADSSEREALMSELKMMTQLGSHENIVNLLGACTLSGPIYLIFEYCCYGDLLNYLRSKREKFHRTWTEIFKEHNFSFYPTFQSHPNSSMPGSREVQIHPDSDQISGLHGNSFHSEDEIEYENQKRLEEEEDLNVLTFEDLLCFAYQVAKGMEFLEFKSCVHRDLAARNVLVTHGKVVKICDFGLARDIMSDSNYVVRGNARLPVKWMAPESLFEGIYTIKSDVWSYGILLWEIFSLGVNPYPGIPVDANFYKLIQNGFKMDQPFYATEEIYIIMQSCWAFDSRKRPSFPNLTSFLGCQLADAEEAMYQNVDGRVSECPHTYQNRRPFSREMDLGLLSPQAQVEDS
Nature of the test: FLT3 mutant assay, cell viability, Ba/F3-FLT3-ITD. The test is classed as cell-based, mouse. To be noted: IC50 (3 days), CellTiter-Glo; read-out: Ba/F3-FLT3-ITD Relative IC50. As to the method:
Activity of compounds on FLT3 activating mutations were assessed using Ba/F3 cell lines (mouse pro-B cell line) stably expressing human FLT3-ITD, FLT3-ITD-D835Y or FLT3-ITD-F691L. […] The supernatant collected were concentrated with PEG8000 and used to infect Ba/F3 cells at 1-5 MOI in serum-free media with polybrene. Infected Ba/F3 cells were selected in presence of puromycin, and surviving cells verified by sequencing and/or protein detection assay. Constitutive expression of the activating kinase transforms the Ba/F3 cells into IL-3-independent growth allowing them to be cultured in the absence of IL-3. […] For use in compound testing, cells in exponential growth phase were harvested, counted, and resuspended at the required cell density. Cell viability assays were performed in 96-well assay plates and 90 μL of cell suspension seeded per well. Serial dilutions of the test compounds and assay controls and were freshly prepared for the assay. Nine-point 3× serial dilutions were prepared in 100% DMSO (400× stock) and subsequently diluted in cell culture media to obtain 10× stocks. Ten microliters of the 10× stock serial dilutions were added to the appropriate wells (triplicate wells per condition) in the assay plate. […] Assay plates were incubated for 3 days in at 37° C. in a humidified incubator with 5% CO2.
Inhibition rate (IR) of the tested compounds was determined by the following formula: IR (%)=(1−(RLU compound−RLU blank)/(RLU control−RLU blank))*100%. The inhibitions of different dose of compound were calculated in Excel file, and the dose responses were analysed using GraphPad Prism to evaluate related parameters, such as Bottom, Top and IC50. For the IC50 analysis by GraphPad Prism, the equation below was used to fit curve: Y=Bottom+(Top−Bottom)/(1+10^((LogIC50−X)*HillSlope))
A general note: ATP-based viability assays read luminescence as a measure of living cells.

SMILES strings stand for the structures.

Usually IC50 stands for the concentration that gives 50% inhibition. With `Cc1nc(C(N)=O)c(Nc2cccc(CCNC(=O)CN(C)C(=O)/C=C/CN(C)C)c2)nc1N(C)C(C)C` [Compound 250, (E)-3-((3-(2-(2-(4-(dimethylamino)-N-methylbut-2-enamido)acetamido)ethyl)phenyl)amino)-5-(isopropyl(methyl)amino)-6-methylpyrazine-2-carboxamide], the IC50 in the test on MOLM-13 lay in the range of 1 to 10 nM. Besides, the GI50 in test [1] lay in the range of 1 to 10 nM.

Turning to `CCc1nc(C(N)=O)c(Nc2cccc(CCNC(=O)CN(C)C(=O)/C=C/CN(C)C)c2)nc1C1CC1` [Compound 219, (E)-5-cyclopropyl-3-((3-(2-(2-(4-(dimethylamino)-N-methylbut-2-enamido)acetamido)ethyl)phenyl)amino)-6-ethylpyrazine-2-carboxamide], the IC50 with MOLM-13 was below 1 nM. In test [1], the GI50 was 1 to 10 nM.

The values are drawn from US20240262795A1, “PYRAZINE COMPOUNDS AS INHIBITORS OF FLT3” (Biomea Fusion, Inc., priority 2021, published 2024).
